According to the NIST ThermoML archive (doi:10.1021/je700647x):

How the values were obtained:
[1] = Ring tensiometer
[2] = xn = mol fraction of the nth substance listed; settings: Ring tensiometer

CN(CCO)CCO [N-methyldiethanolamine]
[1]
Settings | surface tension liquid-gas [mN/m]
288.15 K | 39.99
293.15 K | 39.26
298.15 K | 38.92
303.15 K | 38.08
308.15 K | 37.63
313.15 K | 37.25

CN(CCO)CCO [N-methyldiethanolamine] + CCO
surface tension liquid-gas [mN/m], [2]
Settings | 288.15 K | 293.15 K | 298.15 K | 303.15 K | 308.15 K | 313.15 K
x1 = 0.0253 | 23.45 | 23.11 | 22.79 | 22.49 | 22.16 | 21.92
x1 = 0.0321 | 23.58 | 23.24 | 22.92 | 22.63 | 22.27 | 22.04
x1 = 0.1033 | 24.92 | 24.59 | 24.32 | 24.06 | 23.77 | 23.58
x1 = 0.1629 | 26.03 | 25.7 | 25.45 | 25.26 | 24.94 | 24.81
x1 = 0.1705 | 26.18 | 25.83 | 25.59 | 25.38 | 25.08 | 24.98
x1 = 0.2474 | 27.58 | 27.24 | 27.02 | 26.79 | 26.53 | 26.44
x1 = 0.3713 | 29.85 | 29.47 | 29.28 | 28.95 | 28.75 | 28.63
x1 = 0.4806 | 31.8 | 31.4 | 31.18 | 30.84 | 30.62 | 30.49
x1 = 0.5506 | 33.02 | 32.6 | 32.39 | 32.01 | 31.78 | 31.66
x1 = 0.7035 | 35.58 | 35.06 | 34.92 | 34.48 | 34.24 | 34.07
x1 = 0.7452 | 36.25 | 35.71 | 35.58 | 35.08 | 34.84 | 34.66
x1 = 0.8227 | 37.51 | 36.91 | 36.71 | 36.09 | 35.8 | 35.57
x1 = 0.9368 | 39.11 | 38.42 | 38.1 | 37.39 | 37 | 36.73
x1 = 1 | 39.99 | 39.26 | 38.92 | 38.08 | 37.63 | 37.25

CCO [ethanol]
Settings | surface tension liquid-gas [mN/m]
[1], 298.15 K | 21.85

CCO [ethanol] + CN(CCO)CCO
Settings | surface tension liquid-gas [mN/m]
[2], 298.15 K, x2 = 0 | 21.85

CCO [ethanol] + OCCN(CCO)CCO
Settings | surface tension liquid-gas [mN/m]
[2], 298.15 K, x2 = 0 | 21.85

OCCN(CCO)CCO [triethanolamine]
[1]
Settings | surface tension liquid-gas [mN/m]
288.15 K | 47.64
293.15 K | 46.77
298.15 K | 45.88
303.15 K | 45.16
308.15 K | 44.42
313.15 K | 43.4

OCCN(CCO)CCO [triethanolamine] + CCO
surface tension liquid-gas [mN/m], [2]
Settings | x1 = 0.0795 | x1 = 0.1461 | x1 = 0.2209 | x1 = 0.3266 | x1 = 0.4581 | x1 = 0.6263 | x1 = 0.7725 | x1 = 0.8489 | x1 = 0.9304 | x1 = 1
288.15 K | 24.1 | 25.4 | 27.12 | 29.68 | 33.17 | 37.65 | 41.56 | 43.57 | 45.78 | 47.64
293.15 K | 23.69 | 25.02 | 26.77 | 29.34 | 32.72 | 37.11 | 40.89 | 42.86 | 44.96 | 46.77
298.15 K | 23.32 | 24.7 | 26.42 | 28.97 | 32.29 | 36.57 | 40.24 | 42.16 | 44.22 | 45.88
303.15 K | 23.02 | 24.41 | 26.11 | 28.61 | 31.87 | 36.02 | 39.61 | 41.47 | 43.47 | 45.16
308.15 K | 22.71 | 24.12 | 25.78 | 28.21 | 31.42 | 35.48 | 39 | 40.83 | 42.77 | 44.42
313.15 K | 22.35 | 23.81 | 25.46 | 27.79 | 30.89 | 34.82 | 38.21 | 39.97 | 41.84 | 43.4
